How the values were obtained:
[1] = system: NCI-H23; assay type: cell-based; conditions: Homo sapiens, NCI-H23, Non-Small Cell Lung Cancer, 72 hours
[2] = system: MOLT-4; assay: In vitro tumor cell efficacy test (SRB), Leukemia; assay type: cell-based; conditions: Homo sapiens, MOLT-4, Leukemia, 72 hours
[3] = system: SNB-75; assay: In vitro tumor cell efficacy test (SRB), CNS Cancer; assay type: cell-based; conditions: Homo sapiens, SNB-75, CNS Cancer, 72 hours
[4] = system: BT-549; assay: In vitro tumor cell efficacy test (SRB), Breast Cancer; assay type: cell-based; conditions: Homo sapiens; BT-549, Breast Cancer, 72 hours
[5] = system: OVCAR-3; assay: In vitro tumor cell efficacy test (SRB), Ovarian Cancer; conditions: Homo sapiens, OVCAR-3, 72 h
[6] = system: OVCAR-4; assay: as above; assay type: cell-based; conditions: Homo sapiens, OVCAR-4, Ovarian Cancer, 72 hours
[7] = system: OVCAR-8; assay: as above; assay type: cell-based; conditions: Homo sapiens, OVCAR-8, Ovarian Cancer, 72 hours
[8] = system: OVCAR-5; assay: as above; assay type: cell-based; conditions: Homo sapiens; OVCAR-5, Ovarian Cancer, 72 hours
[9] = system: UACC-62; assay: In vitro tumor cell efficacy test (SRB), Melonoma; assay type: cell-based; conditions: Homo sapiens, UACC-62, Melonoma, 72 hours
[10] = system: UO-31; assay: In vitro tumor cell efficacy test (SRB), Renal Cancer; assay type: cell-based; conditions: Homo sapiens, UO-31, Renal Cancer, 72 hours
[11] = system: SF-268; assay: In vitro tumor cell efficacy test (SRB), CNS Cancer; assay type: cell-based; conditions: Homo sapiens, SF-268, CNS Cancer, 72 hours
[12] = system: ACHN; assay: In vitro tumor cell efficacy test (SRB), Renal Cancer; assay type: cell-based; conditions: Homo sapiens, 72 hours
[13] = system: MDA-MB-231/ATCC; assay: In vitro tumor cell efficacy test (SRB), Breast Cancer; assay type: cell-based; conditions: Homo sapiens, 72 hours
[14] = system: panel of protein kinases; assay: Specificity studies, overall statement; assay type: biochemical
Protocol: The assays of kinases were determined by monitoring the phosphorylation of appropriate substrates. The assay mixture contained 0.1 mM cold ATP ^33P-γ-ATP (2000-4000 cpm/μL), 0.1 mM substrate, 1 mM DTT, and 10 mM MgCl2 in 100 mM HEPES buffer pH 7.4. The assay mixture, along with inhibitor and kinase enzyme (0.3-0.4 U/mL), was mixed together in a microtiter 96-well plate in a final volume of 40 μL, sealed and incbated for 1 hour at 30° C. Following incubation, a 15 μL aliquot was added to a Whatman P81 filtration plate containing 100 μL 0.5% phosphoric acid. This mixture was allowed to stand for 5 minutes prior to filtration on a vacuum manifold. The filter plate was washed with 5 successive additions of 300 μL 0.5% phosporic acid. The filtration plate was air dried for 10 minutes before sealing the bottom. After addition of scintillation fluid to the sealed plate, phosphorylated substrate was quantified in a scintillation counter.

[15] = system: EKVX; assay type: cell-based; conditions: Homo sapiens, Non-Small Cell Lung Cancer, 72 hours
[16] = system: MDA-MB-435; assay: In vitro tumor cell efficacy test (SRB), Breast Cancer; assay type: cell-based; conditions: Homo sapiens, MDA-MB-435, Breast Cancer, 72 hours
[17] = system: HL-60(TB); assay: In vitro tumor cell efficacy test (SRB), Leukemia; assay type: cell-based; conditions: Homo sapiens, 72 hours
[18] = system: SF-295; assay: In vitro tumor cell efficacy test (SRB), CNS Cancer; assay type: cell-based; conditions: Homo sapiens, SF-295, CNS Cancer, 72 hours
[19] = system: SK-MEL-5; assay: In vitro tumor cell efficacy test (SRB), Melonoma; assay type: cell-based; conditions: Homo sapiens, SK-MEL-5, Melonoma, 72 hours
[20] = system: RXF 393; assay: In vitro tumor cell efficacy test (SRB), Renal Cancer; assay type: cell-based; conditions: Homo sapiens, RXF 393, Renal Cancer, 72 hours
[21] = system: HOP-92; assay type: cell-based; conditions: Homo sapiens, HOP-92, Non-Small Cell Lung Cancer, 72 hours
[22] = system: MALME-3M; assay: In vitro tumor cell efficacy test (SRB), Melonoma; assay type: cell-based; conditions: Homo sapiens, 72 hours
[23] = system: SNB-19; assay: In vitro tumor cell efficacy test (SRB), CNS Cancer; assay type: cell-based; conditions: Homo sapiens, SNB-19, CNS Cancer, 72 hours
[24] = system: NCI-H460; assay type: cell-based; conditions: Homo sapiens, NCI-H460, Non-Small Cell Lung Cancer, 72 hours
[25] = system: HT29; assay: In vitro tumor cell efficacy test (SRB), Colon Cancer; assay type: cell-based; conditions: Homo sapiens, HT-29, 72 hours
[26] = read-out: Log (LC50) (the source's name) (converted)

For `Nc1nccc(-c2cc(-c3ccc(O)cc3)ccc2O)n1` [3-(2-Amino-pyrimidin-4-yl)-biphenyl-4,4′-diol], the GI50 [1] was 251 nM, the CC50 [1, 26] was greater than 100000 nM and the GI50 [2] was 251 nM. It also gave a CC50 [2, 26] greater than 100000 nM, a GI50 [3] of 2000 nM and a CC50 [3, 26] greater than 100000 nM. It also gave a GI50 [4] of 251 nM, an LC50 [4] greater than 100000 nM and a CC50 ([5]; read-out: Log (LC50) (M) (converted)) greater than 0.0001 M. The GI50 ([5]; read-out: log (GI50) (M) (converted)) was 2.51e-07 M, the GI50 [6] was 316 nM and the CC50 [6, 26] was greater than 100000 nM. The GI50 [7] was 200 nM, the CC50 [7, 26] was greater than 100000 nM and the GI50 [8] was 2000 nM. The LC50 (50% lethal concentration) [8] was greater than 100000 nM, the GI50 [9] was 200 nM and the CC50 [9, 26] was 12600 nM. The GI50 [10] was 251 nM, the CC50 [10, 26] was greater than 100000 nM and the GI50 [11] was 251 nM. For the same molecule, the CC50 [11, 26] was greater than 100000 nM, the GI50 [12] was 251 nM and the CC50 [12, 26] was greater than 100000 nM. The GI50 [13] was 251 nM, the CC50 [13, 26] was greater than 100000 nM and the specificity ([14]; CDK5 and CDK2 versus a panel of protein kinases) was “highly specific for CDK5 and CDK2”. For the same molecule, the “inhibition against a panel of protein kinases” value ([14]; panel of protein kinases) was “little inhibition”, the GI50 [15] was 251 nM and the CC50 [15, 26] was greater than 100000 nM. It also gave a GI50 [16] of 251 nM, a CC50 [16, 26] greater than 100000 nM and a GI50 [17] of 126 nM. For the same molecule, the CC50 [17, 26] was 79400 nM, the GI50 [18] was 251 nM and the CC50 [18, 26] was greater than 100000 nM. For the same molecule, the GI50 [19] was 100 nM, the CC50 [19, 26] was 20000 nM and the GI50 [20] was 1000 nM. It also gave a CC50 [20, 26] of 6310 nM, a GI50 [21] of 398 nM and a CC50 [21, 26] greater than 100000 nM. The GI50 [22] was 501 nM, the CC50 [22, 26] was greater than 100000 nM and the GI50 [23] was 200 nM. It also gave a CC50 [23, 26] of 20000 nM, a GI50 [24] of 251 nM and a CC50 [24, 26] greater than 100000 nM. The GI50 [25] was 3160 nM and the CC50 [25, 26] was greater than 100000 nM.

Reference: US20030187007A1, “Inhibitors of protein kinase for the treatment of disease” (priority 2001, published 2003)
